From patent US12280072B2, “Oligosaccharide compound for inhibiting intrinsic coagulation factor X-enzyme complex, and preparation method therefor and uses thereof” (Jiuzhitang Co., Ltd., priority 2017, dated 2025)

Tests used:
human-controlled plasma [1] = experiment: Anticoagulant activity assay: PT clotting time; type: biochemical
Summary of the method: (§1)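 Compounds in Tris-HCl buffer were serially diluted, and 10 μL was added to 90 μL human control plasma. PT and APTT clotting times were measured on an MC-4000 coagulometer following kit instructions.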

[2] = tested on: inferior vena cava thrombosis; experiment: Anti-venous thrombosis experiment (rabbit brain powder infusion plus ligation); type: in vivo, SD rats; details: rats, sc., experimental dose (2.5, 5.0, 10 mg/kg)
Protocol: Grouping and Administration: Rats were randomly divided into 8 groups with 8 animals in each group. The experimental groups and the dose of the animals in each group were (1) natural saline (NS) control group; (2) LMWH 4.0 mg/kg group; (3) A2 2.5 mg/kg group; (4) A2 group 5.0 mg/kg; (5) A2 10 mg/kg group; (6) D1 2.5 mg/kg group; (7) D1 5.0 mg/kg group; (8) D1 10 mg/kg group. The rats in each group were administered subcutaneously (sc.) into the back, and the administration volume was 1 mL/kg. The modeling experiment was performed 1 hour after administration. A New Zealand rabbit was sacrificed, and the rabbit brain was taken out immediately. Rabbit brain powder infusion was prepared according to the literature method (Thromb Haemost, 2010, 103(5): 994-1004), and stored at −20° C. for use. […] The femoral vein was injected with 2% rabbit brain powder infusion (1 mL/kg). After 20 seconds, the lower margin of the left renal vein was ligated. After the operation, the viscera was placed back into the abdominal cavity and covered with medical gauze (infiltrated with natural saline). […] The length of the thrombus was measured, and the wet weight of the thrombus was weighed and then dry weight was weighed after drying at 50° C. for 24 h. The SPSS software was used to organize and analyze the data, and the measurement data were expressed as mean±standard deviation (x±s). […]

plasma = experiment: TT (thrombin time) clotting time; type: biochemical
FIIa (Homo sapiens) = target: T1, FIIa (Homo sapiens); experiment: AT-dependent IIa inhibitory activity assay; type: biochemical; details: in presence of AT; read-out: Drug concentration required to inhibit 50% of coagulation factor activity (IC50, ng/mL) Ha (AT)
T1 construct: antithrombin (i.e., active coagulation factor IIa); purchased
T1 sequence (P01008 33-464): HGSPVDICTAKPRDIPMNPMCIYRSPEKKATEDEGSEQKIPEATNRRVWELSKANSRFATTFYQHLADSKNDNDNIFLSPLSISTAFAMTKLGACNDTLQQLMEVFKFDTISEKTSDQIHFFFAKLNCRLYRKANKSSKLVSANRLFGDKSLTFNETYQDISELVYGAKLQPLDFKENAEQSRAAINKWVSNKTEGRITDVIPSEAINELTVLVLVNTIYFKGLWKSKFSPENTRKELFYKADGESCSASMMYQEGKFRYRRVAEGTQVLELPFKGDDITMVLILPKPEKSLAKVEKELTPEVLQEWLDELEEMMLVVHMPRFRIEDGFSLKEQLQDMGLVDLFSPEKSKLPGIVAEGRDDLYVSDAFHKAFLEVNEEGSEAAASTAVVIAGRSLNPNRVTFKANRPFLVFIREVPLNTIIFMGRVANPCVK
Summary of the method: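 Sample preincubated with 1 IU/mL antithrombin 2 min at 37 °C, then 24 IU/mL FIIa 2 min, then 1.25 mM chromogenic substrate CS-01 (stock concentrations). OD405 rate relative to buffer control gave residual activity; IC50 from Hill-equation fit.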

human-controlled plasma [3] = experiment: Anticoagulant activity assay: APTT clotting time; type: biochemical
Summary of the method: as §1

mouse tail bleeding = experiment: Bleeding tendency detection (tail-clipping method); type: in vivo; details: mice, sc., high dose of equal multiple of the equivalent antithrombotic dose, vs LMWH
Protocol: Grouping and administration: Mice were randomly divided into 10 groups with 8 animals in each group. The experimental groups and the dose of the animals in each group were (1) natural saline (NS) control group; (2) LMWH 4.0 mg/kg group; (2) LMWH 20 mg/kg group; (3) LMWH 100 mg/Kg group; (4) A2 5 mg/kg group; (5) A2 25 mg/kg group; (6) A2 125 mg/kg group; (7) D1 5 mg/kg group; (8) D1 25 mg/Kg group; (10) D1 125 mg/kg group. The […] in each group were administered subcutaneously (sc.) into the back, and the dose volume was 10 mL/kg.
After 60 min of subcutaneous administration in each experimental group, the mice were placed in a mouse holder, and the tail tip was cut by 5 mm by tail-clipping method, and the mouse tail was immersed in 40 mL of purified water (37° C.) in the beaker. […] At 60 min, the beaker was placed for 60 min and then the absorbance of the solution (OD540) was detected by a UV spectrophotometer.
In addition, whole blood of healthy mice was taken, and the whole blood of different volumes of mice was added to 40 mL of purified water, stirred uniformly and allowed to stand for 60 min. The absorbance (OD540) of the solution was detected by the same method and the volume-absorbance curve was plotted and used as the standard curve for calculating the amount of bleeding. The amount of bleeding in each experimental group was calculated by the standard curve. […]

intrinsic factor Xase = target: T2, intrinsic factor Xase (Homo sapiens, UniProt P00740); experiment: Xase inhibitory activity assay; type: biochemical; details: read-out: Drug concentration required to inhibit 50% of coagulation factor activity (IC50, ng/mL) Xase (converted)
T2 construct: 60 nM FIXa; purchased
T2 sequence (P00740 47-191 limits assumed): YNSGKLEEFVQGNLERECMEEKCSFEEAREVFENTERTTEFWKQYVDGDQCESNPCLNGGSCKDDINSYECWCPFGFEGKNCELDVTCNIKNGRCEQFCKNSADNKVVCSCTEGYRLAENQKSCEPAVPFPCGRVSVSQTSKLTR
T2 sequence (P00740 227-461 limits assumed): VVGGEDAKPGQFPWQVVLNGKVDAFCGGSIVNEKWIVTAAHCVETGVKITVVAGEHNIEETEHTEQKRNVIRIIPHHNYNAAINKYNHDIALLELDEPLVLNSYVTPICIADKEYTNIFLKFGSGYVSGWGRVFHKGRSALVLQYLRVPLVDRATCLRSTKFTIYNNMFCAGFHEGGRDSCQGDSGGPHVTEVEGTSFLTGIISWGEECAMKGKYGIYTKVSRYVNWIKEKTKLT
Summary of the method: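 Reagents mixed at 37 °C: compound with FVIII (2 IU/ml) and FIXa reagent (60 nM, with FIIa, PC/PS, Ca2+) for 2 min, then FX reagent (50 nM, with thrombin inhibitor) for 1 min, then chromogenic substrate SXa-11. OD405 slope over 7.5 min, relative to buffer control as 100%; IC50 from Hill-equation fit.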

FXa (Homo sapiens) = target: T3, FXa (Homo sapiens); experiment: AT-dependent Xa inhibitory activity assay; type: biochemical; details: in presence of AT; read-out: Drug concentration required to inhibit 50% of coagulation factor activity (IC50, ng/mL) Xa (AT)
T3 construct: 8 μg/mL FXa solution; purchased
T3 sequence (P01008 33-464): as the sequence (P01008 33-464) above
Summary of the method: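 Sample preincubated 1 min at 37 °C with antithrombin (1 IU/mL solution), then FXa (8 µg/mL solution) 1 min, then chromogenic substrate SXa-11 (1.25 mM solution). Rate of OD405 change gives residual FXa activity relative to buffer control; duplicates, IC50 fitted with a Hill equation.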

With CC(=O)NC(CO)C(OC1OC(C(=O)O)C(OC2OC(COS(=O)(=O)O)C(OS(=O)(=O)O)C(OC3OC(C(=O)O)C(OC4OC(COS(=O)(=O)O)C(OS(=O)(=O)O)C(OC5OC(C(=O)O)=CC(OC6OC(C)C(OS(=O)(=O)O)C(O)C6OS(=O)(=O)O)C5O)C4NC(C)=O)C(OC4OC(C)C(OS(=O)(=O)O)C(O)C4OS(=O)(=O)O)C3O)C2NC(C)=O)C(OC2OC(C)C(OS(=O)(=O)O)C(O)C2OS(=O)(=O)O)C1O)C(OS(=O)(=O)O)C(O)COS(=O)(=O)O [Compound A2, L-Fuc2S4S-(α1,3)-ΔUA-(α1,3)-{D-GaNAc4S6S-(β1,4)-[L-Fuc2S4S-(α1,3)]-D-GlcA-(β1,3)}n+1-D-GalNAc4S6S-ol] the “Drug concentration required for multiplication of coagulation time (μg/mL) PT” value (human-controlled plasma [1]) was “# (>128 μg/mL)”, the antithrombotic activity [2] was “significant antithrombotic activity” and the “Drug concentration required for multiplication of coagulation time (μg/mL) TT” value (plasma) was “# (>128 μg/mL)”. The IC50 (FIIa (Homo sapiens)) was over 1970 nM, the “Drug concentration required for multiplication of coagulation time (μg/mL) APTT” value (human-controlled plasma [3]) was 7.2 µg/mL and the amount of bleeding (mouse tail bleeding) was “significantly lower than that in LMWH administration group”. The IC50 (intrinsic factor Xase) was 23.8 nM and the IC50 (FXa (Homo sapiens)) was over 1970 nM.
